From patent US10137101B2, “Alkylamido compounds and uses thereof” (Nogra Pharma Limited, priority 2009, dated 2018) come the findings set out here.

Series [1] concerns IL-6. Description: Inhibition of IL-6 protein induction by LPS in keratinocytes (ELISA). Particulars: LPS 10 μg/ml, 24 h; 0.01-0.1-0.5 mM; FIG. 9. In kind it is cell-based, human. As to the method:
Analysis of the inhibition by Compound A of the protein induction of IL-6 by LPS (lipopolysaccharide) was done with the ELISA kit. The keratinocytes were plated in wells of a 24-well plate. At 80% confluence, the cells were treated with LPS (10 μg/ml) in presence of compound A at the three concentrations (0.01-0.1-0.5 mM) for 24 h. At the end of the treatment, the supernatant was decanted, centrifuged so as to remove any cell detritus, and kept at −80° C. until the time of the analysis. The quantity of IL-6 present in the supernatant was normalized by the protein concentration of the sample itself.
(In general: An ELISA detects its analyte on a solid surface through an enzyme-linked reagent.)

For series [2], the system named is sebocytes. Description: Sebogenesis induced by linoleic acid and testosterone, Nile Red Assay. It counts as cell-based, human. Particulars: LA 10^-4M, TST 20 nM, compound 1 mM. As to the method:
Analysis of the inhibition by (compound A) of sebogenesis induced by treatment with linoleic acid (LA) and with testosterone (TST) was evaluated by spectrofluorimetry, using Nile Red as selective marker of intracellular lipids (Nile Red Assay). The sebocytes were plated in wells of a 24-well plate. Next day, they were deprived of serum (2%) and after 24 h they were stimulated, for another 24 h, with LA (10^-4M), TST (20 nM) in presence or in absence of A (1 mM). At the end of the treatment, the sebocytes were stained with Nile Red. The quantitative analysis was done by spectrofluorimetry, which made it possible to distinguish between neutral lipids and polar lipids based on the different wavelength of excitation and emission. […] (FIG. 11).
Analysis of the inhibition by compound A of sebogenesis induced by treatment with linoleic acid (LA) and with testosterone (TST) was evaluated by spectrofluorimetry, using Nile Red as selective marker of intracellular lipids (Nile Red Assay). The sebocytes were plated in wells of a 24-well plate. […] The quantitative analysis was done by spectrofluorimetry, which made it possible to distinguish between neutral lipids and polar lipids based on the different wavelength of excitation and emission.

Series [3] concerns Colitis in C57bI6 mice. The experiment in a line: Anti-murine colitis model (TNBS). It counts as in vivo. How it is done:
Colitis in C57bI6 mice is induced by administering TNBS (150 mg/kg) by oral gavage on day −3. Stool samples were taken 8 hours after administration. At day 0-5, N-acetylated E2 (30 mM) was administrated by oral gavage. On day 5, mice were analyzed to obtain a mortality macroscopic score (Wallace, Gastroenterology 96: 29-36, 1989).

In series [4] the test system is sebocytes. Description: MTT test on human sebocytes. In kind it is cell-based. The conditions noted are these: 0.1-0.5-1-2 mM, 24 and 48 h; FIG. 10. How it is done: To assess the possible toxic or cytostatic effect of the substances under study, a spectrophotometric test (MTT) was carried out. The sebocytes were plated in wells of a 24-well plate in suitable medium with addition of antibiotics, calcium and EGF. At roughly 70% confluence, the cells were exposed to the presence of compound A, in various concentrations (0.1-0.5-1-2 mM), for 24 and 48 h. At the end of the treatment, the MTT test was performed. […] (FIG. 10)
(Tetrazolium assays rely on reduction of a dye to a coloured formazan, in cell work by metabolically active cells.)

Series [5] deals with sebocytes. Description: Sebogenesis induced by LA and TST, fatty acids and squalene by GC-MS. It counts as cell-based, human. The conditions noted are these: compound 1 mM. How it is done:
In order to evaluate in greater detail the inhibition by Compound A of sebogenesis induced by LA and TST, assays were performed on the lipid extract of the sebocytes using gas chromatography coupled with mass spectrometry (GC-MS). The sebocytes were treated by the scheme described for the Nile Red assay. At the end of the treatment, the cells were removed and then the lipid extraction was done by using organic solvents. One part of the extract was used to analyze the fatty acid composition, while the other part was used for the determination of the quantity of squalene, a lipid characteristic of sebum. […] (FIG. 12B)

Series [6] has as its system human primary keratinocytes. The experiment in a line: MTT test on human primary keratinocytes. In kind it is cell-based. Particulars: 0.1-1-2 mM, 24 and 48 h; FIG. 5. How it is done:
To assess the possible toxic or cytostatic effect of the substances under study, a spectrophotometric test (MTT) was carried out. The human primary keratinocytes, isolated from skin biopsies, were plated in wells of a 24-well plate in suitable medium with addition of antibiotics, calcium, and specific growth factors. At around 70% confluence, the cells were exposed to the presence of Compound A, at various concentrations (0.1-1-2 mM), for 24 and 48 h in suitable medium with addition of antibiotics, calcium, but no growth factors. This culture condition was done for all the subsequent experiments. At the end of the treatment, the MTT test was done.

The subject of series [7] is TNF-alpha. The experiment in a line: Inhibition of TNF-alpha mRNA induction by H2O2 in keratinocytes (Real time RT-PCR). It counts as cell-based, human. Particulars: H2O2 300 μM, 6 h, FIG. 6. How it is done: Analysis of the inhibition of compound A of the mRNA induction of the proinflammatory cytokine TNF-alpha by H2O2 was carried out by Real time RT-PCR. The keratinocytes were plated in dishes of 6 cm/Ø. At 80% confluence, the cells were treated with H2O2 (300 μM) in presence of Compound A at the three concentrations (0.01-0.1-0.5 mM) for 6 h. At the end of the treatment, the cells were lysed in a lysis buffer and subjected to isolation and subsequent retrotranscription of the RNA. […] (FIG. 6)
Background: In qPCR the cycle at which signal appears reflects the starting amount.

Series [8] deals with IL-6. Description: Inhibition of IL-6 mRNA induction by IFN-γ in keratinocytes (Real time RT-PCR). It counts as cell-based, human. Particulars: IFN-γ 30 ng/ml, 6 h; 0.01-0.1-0.5 mM; FIG. 7. How it is done: Analysis of the inhibition by compound A of the mRNA induction of the proinflammatory cytokine IL-6 by IFN-γ was done through Real time RT-PCR. The keratinocytes were plated in dishes of 6 cm/Ø.
At 80% confluence, the cells were treated with IFN-γ (30 ng/ml) in presence of compound A (N-Acetylged) at the three concentrations (0.01-0.1-0.5 mM) for 6 h.

On to `CO[C@H](Cc1ccc(NC(C)=O)cc1)C(=O)O` [Compound A, N-acetyl-(R)-(−)-3-(4-aminophenyl)-2-methoxypropionic acid], for which the “inhibition of protein expression of IL-6 induced by LPS” value in series [1] is “inhibit, in dose-dependent manner”. Also, in series [2] (24 h, FIG. 11, FIG. 13), the “inhibition of sebogenesis (intracellular lipids, Nile Red)” value is listed as “able to reduce the lipidogenic stimulus”. Further, in series [2] (FIG. 13), the “influence of times of treatment on inhibition of sebogenesis (Nile Red)” value is on record as “No differences were observed”. Further, the “% mortality” value in series [3] (TNBS 150 mg/kg oral gavage day -3, N-acetylated E2 30 mM oral gavage day 0-5, versus TNBS alone, FIG. 1) was “comparable”. Moreover, in series [3] (TNBS + N-acetyl E2 30 mM oral gavage versus TNBS alone, FIG. 3), the “MPO (myleoperoxidase) activity” value is listed as “decreased”. Also, the “colonic inflammation (Ameho score)” value in series [3] (TNBS + N-acetyl E2 30 mM oral gavage versus TNBS alone, FIG. 4) was “colonic inflammation had decreased”. Besides, in series [3] (TNBS + N-acetyl E2 30 mM oral gavage versus TNBS alone, day 5, FIG. 2), the “level of colonic lesions (Wallace macroscopic score)” value was “significantly less”. Besides, the “cell vitality (MTT)” value in series [4] is given as “no effects on cell vitality”. Besides, the “fatty acid assay of lipid extract (lipidogenic stimulus)” value in series [5] (FIG. 12A) is listed as “reduced”. Moreover, in series [5] (FIG. 12B), the “squalene analysis of lipid extract” value is given as “confirmed”. Besides, the “cellular vitality (MTT)” value in series [6] is “did not show any effect on cellular vitality”. For the same compound, the “inhibition of expression of mRNA of TNF-α induced by H2O2, higher dose” value in series [7] (higher dose (0.5 mM), effect similar to troglitazone) is on record as “complete inhibition”. Moreover, the “inhibition of expression of mRNA of TNF-α induced by H2O2” value in series [7] (two higher doses (0.1 mM; 0.5 mM)) is on record as “able to inhibit”. In addition, in series [8], the “inhibition of mRNA expression of IL-6 induced by IFN-γ” value is “inhibit the expression of the inflammatory cytokine induced by presence of IFN-γ which does not appear to be dose-dependent”.
